Assay results reported in patent US20080275085A1, “Piperidine derivative and use thereof” (priority 2007, published 2008).
Counter-ions that a name gives are not always drawn. Each block holds one molecule with its values, some of them ahead of it.

Legend:
substance P receptor = target: T1, substance P receptor (Homo sapiens, UniProt P25103); assay: Radioligand receptor binding inhibitory activity (125I-BHSP binding, receptor from IM-9 cells); conditions: receptor from human lymphoblast cells (IM-9); radioligand 125I-BHSP; 25° C., 30 min
T1 construct: The receptor was prepared from human lymphoblast cells (IM-9); endogenous in cells; host or cells: IM-9 human lymphoblast cells (membrane fraction, 100,000xG precipitate)
T1 sequence (P25103 whole entry): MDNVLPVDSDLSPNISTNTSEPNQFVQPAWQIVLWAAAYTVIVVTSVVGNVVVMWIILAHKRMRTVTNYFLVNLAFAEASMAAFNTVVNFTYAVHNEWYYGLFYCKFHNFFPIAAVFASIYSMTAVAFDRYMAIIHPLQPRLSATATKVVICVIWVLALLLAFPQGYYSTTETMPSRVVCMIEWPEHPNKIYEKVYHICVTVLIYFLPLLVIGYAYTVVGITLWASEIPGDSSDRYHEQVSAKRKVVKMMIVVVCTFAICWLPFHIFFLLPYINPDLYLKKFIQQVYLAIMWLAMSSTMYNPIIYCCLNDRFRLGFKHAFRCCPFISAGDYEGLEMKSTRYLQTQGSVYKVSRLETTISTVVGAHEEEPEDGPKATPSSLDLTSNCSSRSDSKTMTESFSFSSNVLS
Experimental: Radioligand Receptor Binding Inhibitory Activity (Binding Inhibitory Activity Using Receptor from Human Lymphoblast Cells (IM-9))
The method of M. A. Cascieri et al., “Molecular Pharmacology, vol. 42, p. 458 (1992)” was modified and used. The receptor was prepared from human lymphoblast cells (IM-9).
IM-9 cells (2×10^5 cells/mL) were inoculated and incubated for 3 days, which was then subjected to centrifugation for 10 min. at 500×G to give cell pellets. The obtained pellets were washed with PBS (GIBCO), disrupted in buffer A (50 mM tris.hydrochloric acid buffer (pH 7.4) containing 120 mM sodium chloride, 5 mM potassium chloride, 2 μg/mL chymostatin, 40 μg/mL bacitracin, 40 μg/mL APMSF, 1 mM ethylenediamine tetra acetic acid) using a polytron.homogenizer [manufactured by Kinematika, Germany], and centrifuged at 100,000×G for 40 min. The precipitated fraction was suspended in buffer B (50 mM Tris-HCl (pH 7.4), 0.02% bovine serum albumin, 2 μg/mL chymostatin, 40 μg/mL bacitracin, 40 μg/mL APMSF, 3 mM MgCl2), which was then cryopreserved (−80° C.) as a receptor specimen.
Buffer B (50 μL) was added to a 96 well microassay plate (CORNING). Thereto was added 50 μL of membrane preparation suspended in buffer B at 250 μg/mL. A measurement buffer (50 μL) containing 2% dimethyl sulfoxide was added to examine total binding; 4 μM unlabeled SP (50 μL) diluted with a measurement buffer containing 2% dimethyl sulfoxide was added to examine non-specific binding; and 50 μL of a test compound (containing 2% dimethyl sulfoxide) diluted with a measurement buffer was added to examine binding inhibitory activity of the test compound. In addition, […] ^125I-BHSP solution (50 μL) was added to each well.
After reaction at 25° C. for 30 min, the cells were rapidly filtered through a GF/C filter plate (PerkinElmer) using a cell harvester (manufactured by PerkinElmer) to quench the reaction, and washed 10 times with 250 μL of 50 mM tris-HCl buffer (pH 7.4) containing 0.02% bovine serum albumin. The GF/C filter plate was dried, MicroScinti 0 (20 μL) was added, and the radioactivity was measured with TopCount (manufactured by PerkinElmer). The GF/C filter plate was immersed in 0.3% polyethylene imine for one day before use.
Specific binding is a value obtained by subtracting nonspecific binding from total binding. The binding inhibitory activity of a test compound is shown by a ratio of a value obtained by subtracting a measurement value with addition of a test compound from the total binding, relative to specific binding.
The antagonistic activity of the compounds obtained in the Examples was determined as a concentration necessary for causing 50% inhibition (IC50 value) under the above-described conditions, and the results shown in Table 34 were obtained.
The radio ligand means substance P labeled with [^125I].

SMILES: Cc1cc(F)ccc1[C@H]1CN(CC(N)=O)CC[C@@H]1C(=O)N(C)[C@@H](C)c1cc(C(F)(F)F)cc(C(F)(F)F)c1 [Example 156, (3S,4S)-1-(2-amino-2-oxoethyl)-N-{(1S)-1-[3,5-bis(trifluoromethyl)phenyl]ethyl}-3-(4-fluoro-2-methylphenyl)-N-methylpiperidine-4-carboxamide]
IC50 (substance P receptor): 24 pM
melting point: 161 to 164 °C

SMILES: Cc1cc(F)ccc1[C@H]1CN(C(=O)C2CCN(C(=O)CO)CC2)CC[C@@H]1C(=O)N(C)[C@@H](C)c1cc(C(F)(F)F)cc(C(F)(F)F)c1 (hydrate or solvate) [Example 152, (3S,4S)—N-{(1S)-1-[3,5-bis(trifluoromethyl)phenyl]ethyl}-3-(4-fluoro-2-methylphenyl)-1-[(1-glycoloylpiperidin-4-yl)carbonyl]-N-methylpiperidine-4-carboxamide]
melting point: 108 to 116 °C

SMILES: Cc1cc(F)ccc1[C@H]1CN(S(=O)(=O)C2CC2)CC[C@@H]1C(=O)N(C)[C@@H](C)c1cc(C(F)(F)F)cc(C(F)(F)F)c1 [Example 162, (3S,4S)—N-{(1S)-1-[3,5-bis(trifluoromethyl)phenyl]ethyl}-1-(cyclopropylsulfonyl)-3-(4-fluoro-2-methylphenyl)-N-methylpiperidine-4-carboxamide]
IC50 (substance P receptor): 81 pM
melting point: 154 to 156 °C

SMILES: Cc1cc(F)ccc1[C@@H]1CN(C2=CC(=O)C(C)(C)CC2)CC[C@H]1C(=O)N(C)Cc1cc(C(F)(F)F)cc(C(F)(F)F)c1 (relative stereo) [Example 119, (3R*,4R*)—N-[3,5-bis(trifluoromethyl)benzyl]-1-(4,4-dimethyl-3-oxocyclohex-1-en-1-yl)-3-(4-fluoro-2-methylphenyl)-N-methylpiperidine-4-carboxamide]
IC50 (substance P receptor): 60 pM
melting point: 137 to 138 °C

SMILES: Cc1ccccc1[C@@H]1CN(C(=O)C2CCN(C(=O)CO)CC2)CC[C@H]1C(=O)N(C)Cc1cc(C(F)(F)F)cc(C(F)(F)F)c1 (relative stereo) [Example 16, (3R*,4R*)—N-[3,5-bis(trifluoromethyl)benzyl]-1-[(1-glycoloylpiperidin-4-yl)carbonyl]-N-methyl-3-(2-methylphenyl)piperidine-4-carboxamide]
melting point: 173 to 174 °C

Results, then the molecule that gave them:

IC50 (substance P receptor): 45 pM
melting point: 187 to 189 °C
SMILES: Cc1cc(F)ccc1[C@@H]1CN(S(=O)(=O)c2ccccn2)CC[C@H]1C(=O)N(C)Cc1cc(C(F)(F)F)cc(C(F)(F)F)c1 (relative stereo) [Example 144, (3R*,4R*)—N-[3,5-bis(trifluoromethyl)benzyl]-3-(4-fluoro-2-methylphenyl)-N-methyl-1-(pyridin-2-ylsulfonyl)piperidine-4-carboxamide]

IC50 (substance P receptor): 40 pM
melting point: 170 to 171 °C
SMILES: CCS(=O)(=O)N1CC[C@@H](C(=O)N(C)Cc2cc(C(F)(F)F)cc(C(F)(F)F)c2)[C@H](c2ccc(F)cc2C)C1 (relative stereo) [Example 132, (3R*,4R*)—N-[3,5-bis(trifluoromethyl)benzyl]-1-(ethylsulfonyl)-3-(4-fluoro-2-methylphenyl)-N-methylpiperidine-4-carboxamide]

IC50 (substance P receptor): 60 pM
melting point: 192 to 193 °C
SMILES: Cc1cc(F)ccc1[C@@H]1CN(C2=CC(=O)CC2)CC[C@H]1C(=O)N(C)Cc1cc(C(F)(F)F)cc(C(F)(F)F)c1 (relative stereo) [Example 118, (3R*,4R*)—N-[3,5-bis(trifluoromethyl)benzyl]-3-(4-fluoro-2-methylphenyl)-N-methyl-1-(3-oxocyclopent-1-en-1-yl)piperidine-4-carboxamide]

IC50 (substance P receptor): 55 pM
melting point: 142 to 144 °C
SMILES: Cc1cc(F)ccc1[C@@H]1CN(S(=O)(=O)N(C)C)CC[C@H]1C(=O)N(C)Cc1cc(C(F)(F)F)cc(C(F)(F)F)c1 (relative stereo) [Example 142, (3R*,4R*)—N-[3,5-bis(trifluoromethyl)benzyl]-1-[(dimethylamino)sulfonyl]-3-(4-fluoro-2-methylphenyl)-N-methylpiperidine-4-carboxamide]

IC50 (substance P receptor): 78 pM
melting point: 151 to 153 °C
SMILES: CCOCCS(=O)(=O)N1CC[C@@H](C(=O)N(C)Cc2cc(C(F)(F)F)cc(C(F)(F)F)c2)[C@H](c2ccc(F)cc2C)C1 (relative stereo) [Example 138, (3R*,4R*)—N-[3,5-bis(trifluoromethyl)benzyl]-1-[(2-ethoxyethyl)sulfonyl]-3-(4-fluoro-2-methylphenyl)-N-methylpiperidine-4-carboxamide]

melting point: 196 to 198 °C
SMILES: Cc1cc(F)ccc1[C@@H]1CN(S(=O)(=O)CCN2CCOCC2)CC[C@H]1C(=O)N(C)Cc1cc(C(F)(F)F)cc(C(F)(F)F)c1 (relative stereo) (as salt: hydrochloride) [Example 139, (3R*,4R*)—N-[3,5-bis(trifluoromethyl)benzyl]-3-(4-fluoro-2-methylphenyl)-N-methyl-1-[(2-morpholin-4-ylethyl)sulfonyl]piperidine-4-carboxamide monohydrochloride]

melting point: 126 to 128 °C
SMILES: Cc1cc(F)ccc1[C@@H]1CN(CCC(C)(C)O)CC[C@H]1C(=O)N(C)Cc1cc(C(F)(F)F)cc(C(F)(F)F)c1 (relative stereo) (as salt: hydrochloride) (hydrate or solvate) [Example 123, (3R*,4R*)—N-[3,5-bis(trifluoromethyl)benzyl]-3-(4-fluoro-2-methylphenyl)-1-(3-hydroxy-3-methylbutyl)-N-methylpiperidine-4-carboxamide monohydrochloride]
